Assay results as given in ChEMBL document CHEMBL1152441, “Discovery of [18F]N-(2-(diethylamino)ethyl)-6-fluoronicotinamide: a melanoma positron emission tomography imaging radiotracer with high tumor to body contrast ratio and rapid renal clearance” (J Med Chem, 2009).

What was measured:
[1] = Lipophilicity, log P at pH 7.5; assay type: physicochemical; details: buffer
Intestine [2] = assay: Biodistribution in intestine of mouse B16F0 cells implanted C57BL/6J mouse assessed per gram of tissue at 0.4 to 5.5 MBq, iv after 0.5 hrs by gamma counter; assay type: ADME, organism-based; details: in vivo
Thyroid gland [3] = assay: Biodistribution in thyroid of mouse B16F0 cells implanted C57BL/6J mouse assessed per gram of tissue at 0.4 to 5.5 MBq, iv after 0.5 hrs by gamma counter; assay type: ADME, organism-based; details: in vivo
Thyroid gland [4] = assay: Biodistribution in thyroid of mouse B16F0 cells implanted C57BL/6J mouse assessed per gram of tissue at 0.4 to 5.5 MBq, iv after 1 hr by gamma counter; assay type: ADME, organism-based; details: in vivo
Spleen [5] = assay: Biodistribution in spleen of mouse B16F0 cells implanted C57BL/6J mouse assessed per gram of tissue at 0.4 to 5.5 MBq, iv after 3 hrs by gamma counter; assay type: ADME, organism-based; details: in vivo
Bone [6] = assay: Biodistribution in bone of mouse B16F0 cells implanted C57BL/6J mouse assessed per gram of tissue at 0.4 to 5.5 MBq, iv after 2 hrs by gamma counter; assay type: ADME, organism-based, Bone element; details: in vivo
Thyroid gland [7] = assay: Biodistribution in thyroid of mouse B16F0 cells implanted C57BL/6J mouse assessed per gram of tissue at 0.4 to 5.5 MBq, iv after 3 hrs by gamma counter; assay type: ADME, organism-based; details: in vivo
[8] = Biodistribution in tumor of mouse B16F0 cells implanted C57BL/6J mouse assessed per gram of tissue at 0.4 to 5.5 MBq, iv after 2 hrs by gamma counter; assay type: ADME, organism-based, Neoplasm; details: in vivo
Bone [9] = assay: Biodistribution in bone of mouse B16F0 cells implanted C57BL/6J mouse assessed per gram of tissue at 0.4 to 5.5 MBq, iv after 3 hrs by gamma counter; assay type: ADME, organism-based, Bone element; details: in vivo
Spleen [10] = assay: Biodistribution in spleen of mouse B16F0 cells implanted C57BL/6J mouse assessed per gram of tissue at 0.4 to 5.5 MBq, iv after 1 hr by gamma counter; assay type: ADME, organism-based; details: in vivo
Spleen [11] = assay: Biodistribution in spleen of mouse B16F0 cells implanted C57BL/6J mouse assessed per gram of tissue at 0.4 to 5.5 MBq, iv after 6 hrs by gamma counter; assay type: ADME, organism-based; details: in vivo
Spleen [12] = assay: Biodistribution in spleen of mouse B16F0 cells implanted C57BL/6J mouse assessed per gram of tissue at 0.4 to 5.5 MBq, iv after 0.25 hrs by gamma counter; assay type: ADME, organism-based; details: in vivo
Lung [13] = assay: Biodistribution in lung of mouse B16F0 cells implanted C57BL/6J mouse assessed per gram of tissue at 0.4 to 5.5 MBq, iv after 0.25 hrs by gamma counter; assay type: ADME, organism-based; details: in vivo
Lung [14] = assay: Biodistribution in lung of mouse B16F0 cells implanted C57BL/6J mouse assessed per gram of tissue at 0.4 to 5.5 MBq, iv after 3 hrs by gamma counter; assay type: ADME, organism-based; details: in vivo
Stomach [15] = assay: Biodistribution in stomach of mouse B16F0 cells implanted C57BL/6J mouse assessed per gram of tissue at 0.4 to 5.5 MBq, iv after 3 hrs by gamma counter; assay type: ADME, organism-based; details: in vivo
Bone [16] = assay: Biodistribution in bone of mouse B16F0 cells implanted C57BL/6J mouse assessed per gram of tissue at 0.4 to 5.5 MBq, iv after 1 hr by gamma counter; assay type: ADME, organism-based, Bone element; details: in vivo
Bone [17] = assay: Biodistribution in bone of mouse B16F0 cells implanted C57BL/6J mouse assessed per gram of tissue at 0.4 to 5.5 MBq, iv after 0.5 hrs by gamma counter; assay type: ADME, organism-based, Bone element; details: in vivo
[18] = Biodistribution in tumor of mouse B16F0 cells implanted C57BL/6J mouse assessed per gram of tissue at 0.4 to 5.5 MBq, iv after 1 hr by gamma counter; assay type: ADME, organism-based, Neoplasm; details: in vivo
[19] = Biodistribution in eye of mouse B16F0 cells implanted C57BL/6J mouse assessed per gram of tissue at 0.4 to 5.5 MBq, iv after 3 hrs by gamma counter; assay type: ADME, organism-based; details: in vivo
Stomach [20] = assay: Biodistribution in stomach of mouse B16F0 cells implanted C57BL/6J mouse assessed per gram of tissue at 0.4 to 5.5 MBq, iv after 0.5 hrs by gamma counter; assay type: ADME, organism-based; details: in vivo
[21] = Biodistribution in tumor of mouse B16F0 cells implanted C57BL/6J mouse assessed per gram of tissue at 0.4 to 5.5 MBq, iv after 3 hrs by gamma counter; assay type: ADME, organism-based, Neoplasm; details: in vivo
Stomach [22] = assay: Biodistribution in stomach of mouse B16F0 cells implanted C57BL/6J mouse assessed per gram of tissue at 0.4 to 5.5 MBq, iv after 1 hr by gamma counter; assay type: ADME, organism-based; details: in vivo
Thyroid gland [23] = assay: Biodistribution in thyroid of mouse B16F0 cells implanted C57BL/6J mouse assessed per gram of tissue at 0.4 to 5.5 MBq, iv after 0.25 hrs by gamma counter; assay type: ADME, organism-based; details: in vivo
[24] = Biodistribution in eye of mouse B16F0 cells implanted C57BL/6J mouse assessed per gram of tissue at 0.4 to 5.5 MBq, iv after 0.25 hrs by gamma counter; assay type: ADME, organism-based; details: in vivo
[25] = Biodistribution in eye of mouse B16F0 cells implanted C57BL/6J mouse assessed per gram of tissue at 0.4 to 5.5 MBq, iv after 1 hr by gamma counter; assay type: ADME, organism-based; details: in vivo
Bone [26] = assay: Biodistribution in bone of mouse B16F0 cells implanted C57BL/6J mouse assessed per gram of tissue at 0.4 to 5.5 MBq, iv after 0.25 hrs by gamma counter; assay type: ADME, organism-based, Bone element; details: in vivo
Lung [27] = assay: Biodistribution in lung of mouse B16F0 cells implanted C57BL/6J mouse assessed per gram of tissue at 0.4 to 5.5 MBq, iv after 2 hrs by gamma counter; assay type: ADME, organism-based; details: in vivo
Bone [28] = assay: Biodistribution in bone of mouse B16F0 cells implanted C57BL/6J mouse assessed per gram of tissue at 0.4 to 5.5 MBq, iv after 6 hrs by gamma counter; assay type: ADME, organism-based, Bone element; details: in vivo
Lung [29] = assay: Biodistribution in lung of mouse B16F0 cells implanted C57BL/6J mouse assessed per gram of tissue at 0.4 to 5.5 MBq, iv after 6 hrs by gamma counter; assay type: ADME, organism-based; details: in vivo
Spleen [30] = assay: Biodistribution in spleen of mouse B16F0 cells implanted C57BL/6J mouse assessed per gram of tissue at 0.4 to 5.5 MBq, iv after 2 hrs by gamma counter; assay type: ADME, organism-based; details: in vivo
[31] = Biodistribution in tumor of mouse B16F0 cells implanted C57BL/6J mouse assessed per gram of tissue at 0.4 to 5.5 MBq, iv after 0.5 hrs by gamma counter; assay type: ADME, organism-based, Neoplasm; details: in vivo
Lung [32] = assay: Biodistribution in lung of mouse B16F0 cells implanted C57BL/6J mouse assessed per gram of tissue at 0.4 to 5.5 MBq, iv after 1 hr by gamma counter; assay type: ADME, organism-based; details: in vivo
Stomach [33] = assay: Biodistribution in stomach of mouse B16F0 cells implanted C57BL/6J mouse assessed per gram of tissue at 0.4 to 5.5 MBq, iv after 2 hrs by gamma counter; assay type: ADME, organism-based; details: in vivo
Thyroid gland [34] = assay: Biodistribution in thyroid of mouse B16F0 cells implanted C57BL/6J mouse assessed per gram of tissue at 0.4 to 5.5 MBq, iv after 6 hrs by gamma counter; assay type: ADME, organism-based; details: in vivo
Intestine [35] = assay: Biodistribution in intestine of mouse B16F0 cells implanted C57BL/6J mouse assessed per gram of tissue at 0.4 to 5.5 MBq, iv after 2 hrs by gamma counter; assay type: ADME, organism-based; details: in vivo
Intestine [36] = assay: Biodistribution in intestine of mouse B16F0 cells implanted C57BL/6J mouse assessed per gram of tissue at 0.4 to 5.5 MBq, iv after 1 hr by gamma counter; assay type: ADME, organism-based; details: in vivo

SMILES: CCN(CC)CCNC(=O)c1ccc([18F])nc1
- logD [1]: 1.1
- Drug uptake (Intestine [2]): 3.9%
- Drug uptake (Thyroid gland [3]): 2.5%
- Drug uptake (Thyroid gland [4]): 3.3%
- Drug uptake (Spleen [5]): 0.89%
- Drug uptake (Bone [6]): 0.58%
- Drug uptake (Thyroid gland [7]): 0.49%
- Drug uptake [8]: 9.4%
- Drug uptake (Bone [9]): 0.62%
- Drug uptake (Spleen [10]): 2.4%
- Drug uptake (Spleen [11]): 0.47%
- Drug uptake (Spleen [12]): 8.6%
- Drug uptake (Lung [13]): 5.6%
- Drug uptake (Lung [14]): 0.25%
- Drug uptake (Stomach [15]): 0.83%
- Drug uptake (Bone [16]): 1.4%
- Drug uptake (Bone [17]): 2.1%
- Drug uptake [18]: 8.4%
- Drug uptake [19]: 17.3%
- Drug uptake (Stomach [20]): 6.6%
- Drug uptake [21]: 7.8%
- Drug uptake (Stomach [22]): 3.4%
- Drug uptake (Thyroid gland [23]): 5.5%
- Drug uptake [24]: 14.7%
- Drug uptake [25]: 18.8%
- Drug uptake (Bone [26]): 3.5%
- Drug uptake (Lung [27]): 0.38%
- Drug uptake (Bone [28]): 0.52%
- Drug uptake (Lung [29]): 0.07%
- Drug uptake (Spleen [30]): 1.8%
- Drug uptake [31]: 8.6%
- Drug uptake (Lung [32]): 1.6%
- Drug uptake (Stomach [33]): 1.5%
- Drug uptake (Thyroid gland [34]): 0.17%
- Drug uptake (Intestine [35]): 0.71%
- Drug uptake (Intestine [36]): 2.1%
